Source: patent publication US7414134B2, “B1 bradykinin receptor antagonists” (Amgen Inc., priority 2004, dated 2008)
Ends that are not written are not given here.

Key:
hB1 receptor = target: T1, hB1 receptor (Homo sapiens, UniProt P46663); assay: In vitro assay of human B1 receptor function using calcium flux (aequorin); format: cell-based; conditions: CHO D-/hB1/Aequorin cells, agonist 20 nM des-Arg10-Kallidin (EC80); read-out: binding IC50's to hB1 receptor function
T1 construct: expressed in transfected cells; host or cells: CHO D- cells stably expressing hB1 and aequorin
T1 sequence (P46663 1-353): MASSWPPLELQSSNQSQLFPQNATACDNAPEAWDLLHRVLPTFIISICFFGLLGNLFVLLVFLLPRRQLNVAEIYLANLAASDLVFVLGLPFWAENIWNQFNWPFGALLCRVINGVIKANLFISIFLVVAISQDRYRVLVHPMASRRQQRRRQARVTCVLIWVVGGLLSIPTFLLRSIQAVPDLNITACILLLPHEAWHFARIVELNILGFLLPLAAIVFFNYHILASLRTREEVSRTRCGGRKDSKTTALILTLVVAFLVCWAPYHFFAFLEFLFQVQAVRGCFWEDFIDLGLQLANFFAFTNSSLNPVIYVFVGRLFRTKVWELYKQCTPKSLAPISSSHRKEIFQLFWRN
Source text: Activation of the Gq linked B1 receptor results in an increase in intracellular calcium. The calcium sensitive photoprotein aequorin can, therefore, be used as an indicator of B1 receptor activation. Aequorin is a 21-kDa photoprotein that forms a bioluminescent complex when linked to the chromophore cofactor coelenterazine. Following the binding of calcium to this complex, an oxidation reaction of coelenterazine results in the production of apoaequorin, coelenteramide, CO2, and light that can be detected by conventional luminometry.
A stable CHO D-/hB1/Aequorin cell line was established and the cells were maintained in suspension in spinner bottles containing a 1:1 ratio of DMEM and HAM F12 (Gibco 11765-047), high glucose (Gibco 11965-084), 10% Heat Inactivated Dialyzed serum (Gibco 26300-061), 1× Non-Essential Amino Acids (Gibco 11140-050), 1× Glutamine-Pen-Strep (Gibco 10378-016), and Hygromycin, 300 μg/mL (Roche 843555). […]
Media was removed from the wells and replaced with 60 μL of serum free HAM's F12 with 30 mM HEPES (pH 7.5) and 15 μM coelenterazine (Coelenterazine h Luciferin #90608 from Assay Designs). […] The hB1 agonist, des-Arg10-Kallidin, was added to the cell plate and another 12 images were recorded to determine the IC50 of the antagonist(s).

[1] = cited from earlier work

Q: With `Cc1ccc(S(=O)(=O)N[C@H](Cc2cn([C@@H]3CCOc4cc(CN5CCC(F)CC5)ccc43)nn2)C(N)=O)cc1` [Example 7, (R)-3-(1-((R)-7-((4-fluoropiperidin-1-yl)methyl)-3,4-dihydro-2H-chromen-4-yl)-1H-1,2,3-triazol-4-yl)-2-(4-methylphenylsulfonamido)propanamide] as the molecule, how does the IC50 (hB1 receptor) read?
A: < 1 µM

Q: For RPPGFSPFR [BK, Bradykinin], which “half-life of BK in plasma” value [1] is on record?
A: approximately 17 seconds
